Assay results published in patent US20180055888A1, “COMPOSITIONS AND METHODS FOR ENHANCING THE THERAPEUTIC POTENTIAL OF STEM CELLS” (priority 2013, published 2018).

Tests used:
[1] = system: mouse model for hind limb peripheral ischemia; assay: Ranking analysis / overall evaluation of all parameters, mouse hind limb ischemia model; format: in vivo, Mouse/Athymic Nude; details: for Factor 2: Difference between ranks of adjacent-ranked groups / Factor by which average rank differs from the top-ranked group (4) / Average Rank: Day 35, imputed data; for Average Rank: average over Blood Flow, Limb Function, Ischemic Severity Score
Source text: Study end points were: Clinical score; Body weight measurements; Blood flow measurements Ranking analysis: Each group was given a ranking from 1 to 10 on each of the first 3 endpoints measured (% Blood Flow, Limb Function and Ischemic Severity Score). Rank=1 is highest and Rank=10 is lowest. When two groups are tied, both receive the same rank “in the middle”; e.g. if two groups were tied in Rank=4, both received the score 4.5 (twice of which is the sum of ranks 4 and 5). For each endpoint, the median was computed for each group (the median was used to ensure that extreme value will not affect results). On each endpoint, groups were sorted by median and each given its respective rank. The average rank was computed for each group over all endpoints
While paired comparisons were done, central results are presented in a way in that they are statistically relevant and can be clearly depicted in graphics. Data are consistent across endpoints and are consistent across different analysis. To obtain this picture we eliminated Weight from consideration. […] Each group was ranked on remaining 3 endpoints on day 35 and assessed Average Rank of groups—a measure combining results from all endpoints.
Evaluating all Parameters Concurrently at Day 35. Procedure: For each parameter (Blood Flow (%), Limb Function and Ischemic Severity Score) the median in the group across all animals was computed. All the groups based on their median from 1 to 10, where 1 is best, were ranked on each of the following parameters: Blood Flow {%)—highest is 1, lowest is 10; Limb Function—highest is 10, lowest is 1 (worst category is 3, best is 0); Ischemic Severity Score—highest is 10, lowest is 1 (worst category is 4, best is 0); Finally, for each group we computed the average rank over the three parameters.

[2] = system: mouse model for hind limb peripheral ischemia; assay: Animal disposition (amputations, completion of 35 days follow-up), mouse hind limb ischemia model; format: in vivo; details: for Completed % (completed 35 days follow-up) / Imputed % (amputation after day 14, attributed to treatment failure): % of animals of the group; for Completed N (completed 35 days follow-up) / Imputed N (amputation after day 14, attributed to treatment failure): number of animals of the group
Source text: A major problem in pre-clinical studies is often the high drop-out rate of animals due to treatment related failure (amputations after day 14 post surgery) or unrelated to treatment (e.g. death during anesthesia, or amputations before day 14 post surgery). Only a few animals had to be excluded from statistical analysis due to the latter reason.
(§1) Disclosed herein is the testing of BM MSCs in a mouse model for hind limb peripheral ischemia. Peripheral artery disease (PAD) is a form of peripheral vascular diseases (PVD) in which there are partial or total blockage of blood supply to a limb, usually the leg, leading to impaired blood flow and hypoxia in the tissue. When PAD advances it reaches the stage of critical limb ischemia (CLI) with skin ulcerations, gangrene and unavoidable amputations. One of the most promising innovative treatments for diabetic vascular complications is stem cell-based products that enhance angiogenesis (TRefl-3) Hind limb ischemia animal models have been used to evaluate various therapeutic approaches addressing stem cell transplantation.
Under anesthesia, the mouse was placed with ventral side up. A 0.5-1.0 cm incision was made in the skin in the inguinal area. The femoral artery was ligated twice with 6-0 silk thread and transected between the ligatures. The wound was closed with 4-0 silk thread and the mouse was allowed to recover.
On DAY 1, 24 hours post-surgery, each treated animal was injected intramuscular at two sites (the proximal and the distal side of the surgical wound) or intravenous into the tail vein. For intramuscular injection the animals were injected 50 μl at each site, total 100 μl per animal. For intravenous injection the animals were injected by 200 μl per animal.
(§2) In further analyses the imputation of missing data is done in the following way: Blood Flow (%): Value of the first measurement after the surgery (assumption is that treatment failed so that there is no improvement beyond what was observed immediately after surgery); Ischemic Severity Score: 4=“Total Hind-Limb Loss” (the worst score possible); Limb Function 3=“Dragging of foot” (the worst score possible); Weight (g): The animal's lowest weight at any of the points measured up to and including the day of amputation.

[3] = system: mouse model for hind limb peripheral ischemia; assay: In vivo assessment of limb function (graded scale), mouse hind limb ischemia model; parameters: species or system Mouse/Athymic Nude; details: Day 35, imputed data, group median, rank 1 best of 10 groups
Source text: Disclosed herein is the testing of BM MSCs in a mouse model for hind limb peripheral ischemia. Peripheral artery disease (PAD) is a form of peripheral vascular diseases (PVD) in which there are partial or total blockage of blood supply to a limb, usually the leg, leading to impaired blood flow and hypoxia in the tissue. When PAD advances it reaches the stage of critical limb ischemia (CLI) with skin ulcerations, gangrene and unavoidable amputations. […]
In vivo assessment of limb function and Ischemic damage. Semi-quantitative assessment of impaired use of the ischemic limb was performed once a week post-surgery using the following scale (Stabile et al., Circulation. 2003; 15; 108{2):205-210). […]
In vivo assessment of limb function. Semi-quantitative assessment of impaired use of the ischemic limb was performed on days 7 up to 35 by using graded functional scales. […]
as §2

[4] = system: mouse model for hind limb peripheral ischemia; assay: Blood flow measurement (non-contact Laser Doppler), mouse hind limb ischemia model; format: in vivo, Mouse/Athymic Nude; details: for Rank of treatment group, Blood Flow: Day 35, imputed data, group median, rank 1 best of 10 groups
Source text: as §1
Animal handling was according to the National Institute of Health (NIH) and the Association for Assessment and Accreditation of Laboratory Animal Care (AAALAC). Animals were housed in polysufone (PSU) cages (7-8/cage) measuring […] cm, with stainless steel top grill having facilities for pelleted food and drinking water in glass-clear polycarbonate bottle; bedding: steam sterilized clean paddy husk (Harlan, Sani-chip, Cat#: 106S8216) was used and bedding material was changed along with the cage at least twice a week. Animals were fed ad libitum a commercial rodent diet (Teklad Certified Global 18% Protein Diet cat #: 106S8216). Animals have free access to autoclaved and acidified drinking water (pH between 2.5 and 3.5) obtained from the municipality supply. Animals were housed under standard laboratory conditions, air conditioned and filtered (HEPA F6/6) with adequate fresh air supply (Minimum 15 air changes/hour). Animals were kept in a climate controlled environment. Temperatures range was 20-24° C. and RH range was 30-70% with 12 hours light and 12 hours dark cycle. Species/Strain: Mouse/Athymic Nude; Gender/Number/Age: Male/152/9-10 weeks; Source: Harlan Laboratories, Israel; Body weight: The average body weight was 28.4 g at study initiation (day 1). The minimum and maximum weights of the group were within a range of ±20% of group mean weight; Acclimation period: 5-10 days; Identification: Three position ear notching and cage cards. […] Surgery Day was defined as “DAY 0” in this study. On the day of surgery anesthesia was induced by 1.5 to 3.0% isofiurane, 1.5% N2O and 0.5% O2. […]
(§3) Body weight was measured on study day −1 prior to the surgery and once weekly thereafter. Blood flow measurement: Blood flow in legs from both sides was measured with a non-contact Laser Doppier before surgery and on days: 1, 3, 7, 14, 21, 28 and 35 post operation. Blood flow measurements were expressed as the ratio of the flow in the ischemic limb to that in the normal limb (Goto et al. Tokai J Exp Clin Med., Vol. 31, No. 3, pp. 128-132, 2006). […]

[5] = system: mouse model for hind limb peripheral ischemia; assay: Macroscopic evaluation of ischemic severity (morphological grades for necrotic area), mouse hind limb ischemia model; format: in vivo, Mouse/Athymic Nude; details: Day 35, imputed data, group median, rank 1 best of 10 groups
Source text: as §1
Under anesthesia, the mouse was placed with ventral side up. A 0.5-1.0 cm incision was made in the skin in the inguinal area. The femoral artery was ligated twice with 6-0 silk thread and transected between the ligatures. […]
as §3

Cc1ccc2c(c1)C(=O)C1(O)CCN(c3ccccc3)C1=N2 (centres unmarked) [DMEM + BB, blebbistatin]
overall efficacy in the model ([1]; conclusion over endpoints): no beneficial effect
Factor 2: Difference between ranks of adjacent-ranked groups ([1]; im): 0.8
Factor by which average rank differs from the top-ranked group (4) ([1]; im): 4.7
Average Rank ([1]; im): 5.8
Factor 2: Difference between ranks of adjacent-ranked groups ([1]; iv): 0.0
Factor by which average rank differs from the top-ranked group (4) ([1]; iv): 4.7
Average Rank ([1]; iv): 5.8
Completed % (completed 35 days follow-up) ([2]; im): 82.4%
Imputed % (amputation after day 14, attributed to treatment failure) ([2]; im): 0%
Completed N (completed 35 days follow-up) ([2]; im): 14
Imputed N (amputation after day 14, attributed to treatment failure) ([2]; im): 0
Completed % (completed 35 days follow-up) ([2]; iv): 93.3%
Imputed % (amputation after day 14, attributed to treatment failure) ([2]; iv): 0%
Completed N (completed 35 days follow-up) ([2]; iv): 14
Imputed N (amputation after day 14, attributed to treatment failure) ([2]; iv): 0
Rank of treatment group, Limb Function ([3]; im): 5
Rank of treatment group, Limb Function ([3]; iv): 5
regeneration of blood flow ([4]; blebbistatin alone, without cells, FIGS. 1A-B): no effect on the regeneration of blood flow
Rank of treatment group, Blood Flow ([4]; im): 6.5
regeneration in blood flow over time ([4]; intramuscular, FIG. 1A): marginally recovery effects
Rank of treatment group, Blood Flow ([4]; iv): 6.5
Rank of treatment group, Ischemic Severity Score ([5]; im): 6
Rank of treatment group, Ischemic Severity Score ([5]; iv): 6
